US11981658B2, “Substituted aminopyridine compounds as EGFR inhibitors” (YUHAN CORPORATION, priority 2021, dated 2024)
Counter-ions that a name gives are not always drawn. Like-named read-outs stand apart in the source and are kept apart here.

What was measured:
[1] = biological target: EGFR Del19/T790M/C797S (Homo sapiens, UniProt P00533, C797S/DEL746-750/T790M); test: Biochemical EGFR kinase inhibition assay (Lance Ultra TR-FRET), triple mutant del19/T790M/C797S
Outline: (§1)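 Kinase activity is measured by TR-FRET phosphopeptide detection. Compounds span 0.003 μM to 10 μM; the 1 h reaction at room temperature is quenched with EDTA, then labelled antibody (2 nM) is incubated 60 min before reading.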

[2] = biological target: EGFR L858R/T790M/C797S (Homo sapiens, UniProt P00533, C797S/L858R/T790M); test: Biochemical EGFR kinase inhibition assay (Lance Ultra TR-FRET), triple mutant L858R/T790M/C797S
EGFR L858R/T790M/C797S, sequence (P00533 25-1210 T790M/C797S/L858R): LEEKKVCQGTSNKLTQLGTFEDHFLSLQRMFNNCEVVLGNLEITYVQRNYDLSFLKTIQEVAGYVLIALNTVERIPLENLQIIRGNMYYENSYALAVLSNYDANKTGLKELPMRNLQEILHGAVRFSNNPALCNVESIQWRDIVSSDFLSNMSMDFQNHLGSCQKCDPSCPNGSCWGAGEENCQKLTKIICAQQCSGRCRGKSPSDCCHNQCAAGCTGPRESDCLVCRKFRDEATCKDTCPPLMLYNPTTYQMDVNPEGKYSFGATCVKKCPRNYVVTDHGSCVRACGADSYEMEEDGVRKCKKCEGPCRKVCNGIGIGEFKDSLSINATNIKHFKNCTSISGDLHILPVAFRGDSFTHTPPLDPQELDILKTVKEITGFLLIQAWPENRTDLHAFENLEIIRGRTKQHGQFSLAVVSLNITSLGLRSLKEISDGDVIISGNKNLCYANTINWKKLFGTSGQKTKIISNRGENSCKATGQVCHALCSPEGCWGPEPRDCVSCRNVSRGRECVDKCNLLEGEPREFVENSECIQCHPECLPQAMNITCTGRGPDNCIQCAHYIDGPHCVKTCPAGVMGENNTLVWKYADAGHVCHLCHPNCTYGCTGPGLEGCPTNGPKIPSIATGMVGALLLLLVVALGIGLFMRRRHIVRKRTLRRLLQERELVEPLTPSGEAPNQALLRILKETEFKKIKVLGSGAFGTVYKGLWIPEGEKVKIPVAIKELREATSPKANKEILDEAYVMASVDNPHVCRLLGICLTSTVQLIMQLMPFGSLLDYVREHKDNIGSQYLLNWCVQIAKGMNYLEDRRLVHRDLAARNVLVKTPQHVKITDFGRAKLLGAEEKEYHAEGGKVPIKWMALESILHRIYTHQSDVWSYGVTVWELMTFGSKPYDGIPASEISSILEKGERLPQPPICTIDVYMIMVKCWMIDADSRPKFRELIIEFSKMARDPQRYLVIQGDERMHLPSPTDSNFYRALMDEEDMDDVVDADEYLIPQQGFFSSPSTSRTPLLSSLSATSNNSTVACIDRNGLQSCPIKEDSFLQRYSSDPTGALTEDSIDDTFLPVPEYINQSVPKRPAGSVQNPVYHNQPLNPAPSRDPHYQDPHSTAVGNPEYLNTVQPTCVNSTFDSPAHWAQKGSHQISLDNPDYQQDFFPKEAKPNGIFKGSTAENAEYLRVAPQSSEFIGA
Outline: as §1

[3] = biological target: EGFR Del19/C797S (Homo sapiens, UniProt P00533, C797S/DEL746-750); test: Biochemical EGFR kinase inhibition assay (Lance Ultra TR-FRET), double mutant del19/C797S
EGFR Del19/C797S, sequence (P00533 with tags, fused parts or gaps DEL746-750/C797S): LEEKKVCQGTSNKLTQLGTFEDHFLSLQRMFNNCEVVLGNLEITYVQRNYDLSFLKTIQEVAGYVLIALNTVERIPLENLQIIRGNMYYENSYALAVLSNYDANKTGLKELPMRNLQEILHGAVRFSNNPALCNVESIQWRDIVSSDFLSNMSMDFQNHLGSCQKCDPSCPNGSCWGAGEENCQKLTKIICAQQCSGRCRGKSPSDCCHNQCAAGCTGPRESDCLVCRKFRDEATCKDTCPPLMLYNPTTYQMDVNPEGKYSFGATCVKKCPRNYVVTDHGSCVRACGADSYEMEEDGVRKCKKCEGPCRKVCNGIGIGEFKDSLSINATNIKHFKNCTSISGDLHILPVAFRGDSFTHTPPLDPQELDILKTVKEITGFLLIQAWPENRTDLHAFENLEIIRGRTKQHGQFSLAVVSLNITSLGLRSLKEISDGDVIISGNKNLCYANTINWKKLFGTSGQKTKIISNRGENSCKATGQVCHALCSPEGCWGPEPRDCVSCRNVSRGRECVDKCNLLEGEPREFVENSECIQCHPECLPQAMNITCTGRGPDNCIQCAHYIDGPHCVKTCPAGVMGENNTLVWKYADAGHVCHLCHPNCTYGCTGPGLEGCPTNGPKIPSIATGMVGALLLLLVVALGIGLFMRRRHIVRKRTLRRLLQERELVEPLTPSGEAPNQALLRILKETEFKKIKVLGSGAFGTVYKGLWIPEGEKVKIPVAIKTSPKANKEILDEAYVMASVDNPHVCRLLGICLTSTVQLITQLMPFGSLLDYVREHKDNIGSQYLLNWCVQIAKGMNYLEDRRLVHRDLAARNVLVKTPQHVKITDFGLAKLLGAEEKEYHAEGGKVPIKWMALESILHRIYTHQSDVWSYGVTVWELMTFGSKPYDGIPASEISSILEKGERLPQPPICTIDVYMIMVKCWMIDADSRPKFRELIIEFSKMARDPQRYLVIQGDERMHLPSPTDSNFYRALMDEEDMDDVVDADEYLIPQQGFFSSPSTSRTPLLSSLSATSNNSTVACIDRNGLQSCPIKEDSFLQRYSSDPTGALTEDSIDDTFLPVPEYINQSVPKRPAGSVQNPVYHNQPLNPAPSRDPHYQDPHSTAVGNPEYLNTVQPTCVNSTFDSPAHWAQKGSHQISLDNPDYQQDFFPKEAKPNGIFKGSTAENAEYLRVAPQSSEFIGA
Outline: as §1

[4] = biological target: EGFR L858R/C797S (Homo sapiens, UniProt P00533, C797S/L858R); test: Biochemical EGFR kinase inhibition assay (Lance Ultra TR-FRET), double mutant L858R/C797S
Outline: as §1

[5] = biological target: EGFR wildtype (WT) (Homo sapiens, UniProt P00533); test: Biochemical EGFR kinase inhibition assay (Lance Ultra TR-FRET), wildtype
EGFR wildtype (WT), sequence (P00533 25-1210): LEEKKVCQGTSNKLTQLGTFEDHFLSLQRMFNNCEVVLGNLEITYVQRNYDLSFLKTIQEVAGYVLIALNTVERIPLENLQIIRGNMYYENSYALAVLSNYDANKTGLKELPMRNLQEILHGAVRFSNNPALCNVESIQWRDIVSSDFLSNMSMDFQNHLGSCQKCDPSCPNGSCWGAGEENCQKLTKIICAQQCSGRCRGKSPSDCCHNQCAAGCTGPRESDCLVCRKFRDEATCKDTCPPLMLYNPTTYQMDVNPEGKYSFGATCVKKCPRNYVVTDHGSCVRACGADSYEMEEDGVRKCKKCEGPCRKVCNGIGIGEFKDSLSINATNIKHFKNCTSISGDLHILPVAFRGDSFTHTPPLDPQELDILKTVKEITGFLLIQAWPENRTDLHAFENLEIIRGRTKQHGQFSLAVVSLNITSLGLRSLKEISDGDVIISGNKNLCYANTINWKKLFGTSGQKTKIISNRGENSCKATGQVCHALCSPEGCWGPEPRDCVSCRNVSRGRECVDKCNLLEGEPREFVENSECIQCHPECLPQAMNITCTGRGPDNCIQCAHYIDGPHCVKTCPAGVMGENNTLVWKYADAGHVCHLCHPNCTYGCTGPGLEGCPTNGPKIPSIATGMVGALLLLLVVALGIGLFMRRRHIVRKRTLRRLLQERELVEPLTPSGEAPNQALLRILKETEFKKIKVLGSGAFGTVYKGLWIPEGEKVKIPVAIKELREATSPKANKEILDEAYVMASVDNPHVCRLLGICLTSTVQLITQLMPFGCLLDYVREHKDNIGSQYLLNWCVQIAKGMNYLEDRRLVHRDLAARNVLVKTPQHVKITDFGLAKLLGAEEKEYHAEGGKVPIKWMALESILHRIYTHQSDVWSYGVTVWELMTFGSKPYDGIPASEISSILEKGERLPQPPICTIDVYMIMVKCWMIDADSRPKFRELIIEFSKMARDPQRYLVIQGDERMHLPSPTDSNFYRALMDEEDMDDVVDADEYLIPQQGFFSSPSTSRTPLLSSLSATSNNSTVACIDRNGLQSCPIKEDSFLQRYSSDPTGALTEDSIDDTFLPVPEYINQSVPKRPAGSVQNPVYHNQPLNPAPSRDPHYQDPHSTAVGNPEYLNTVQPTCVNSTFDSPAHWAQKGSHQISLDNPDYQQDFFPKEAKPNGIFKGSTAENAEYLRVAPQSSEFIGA
Outline: as §1

[6] = ATP at Km, read-out: IC50 Del19/T790M/C797S (nM), Km ATP
[7] = ATP at Km, read-out: IC50 L858R/T790M/C797S (nM), Km ATP
[8] = ATP at Km, read-out: IC50 Del19/C797S (nM), Km ATP
[9] = ATP at Km, read-out: IC50 L858R/C797S (nM), Km ATP
[10] = ATP at Km, read-out: IC50 WT (nM), Km ATP
[11] = IC50 Del19/T790M/C797S (nM), 100 μM ATP
[12] = IC50 L858R/T790M/C797S (nM), 100 μM ATP
[13] = IC50 Del19/C797S (nM), 100 μM ATP
[14] = IC50 L858R/C797S (nM), 100 μM ATP
[15] = Km ATP, read-out: IC50 Del19/T790M/C797S (nM), Km ATP
[16] = Km ATP, read-out: IC50 L858R/T790M/C797S (nM), Km ATP
[17] = Km ATP, read-out: IC50 Del19/C797S (nM), Km ATP
[18] = Km ATP, read-out: IC50 L858R/C797S (nM), Km ATP
[19] = Km ATP, read-out: IC50 WT (nM), Km ATP
[20] = Km ATP, read-out: IC50 Del19/T790M/C797S (nM) Km ATP
[21] = Km ATP, read-out: IC50 Del19/C797S (nM) Km ATP
[22] = Km ATP, read-out: IC50 L858R/C797S (nM) Km ATP
[23] = Km ATP, read-out: IC50 WT (nM) Km ATP
[24] = Km ATP, read-out: IC50 L858R/T790M/C797S (nM) Km ATP

EGFR Del19/T790M/C797S, sequence (P00533 with tags, fused parts or gaps DEL746-750/T790M/C797S): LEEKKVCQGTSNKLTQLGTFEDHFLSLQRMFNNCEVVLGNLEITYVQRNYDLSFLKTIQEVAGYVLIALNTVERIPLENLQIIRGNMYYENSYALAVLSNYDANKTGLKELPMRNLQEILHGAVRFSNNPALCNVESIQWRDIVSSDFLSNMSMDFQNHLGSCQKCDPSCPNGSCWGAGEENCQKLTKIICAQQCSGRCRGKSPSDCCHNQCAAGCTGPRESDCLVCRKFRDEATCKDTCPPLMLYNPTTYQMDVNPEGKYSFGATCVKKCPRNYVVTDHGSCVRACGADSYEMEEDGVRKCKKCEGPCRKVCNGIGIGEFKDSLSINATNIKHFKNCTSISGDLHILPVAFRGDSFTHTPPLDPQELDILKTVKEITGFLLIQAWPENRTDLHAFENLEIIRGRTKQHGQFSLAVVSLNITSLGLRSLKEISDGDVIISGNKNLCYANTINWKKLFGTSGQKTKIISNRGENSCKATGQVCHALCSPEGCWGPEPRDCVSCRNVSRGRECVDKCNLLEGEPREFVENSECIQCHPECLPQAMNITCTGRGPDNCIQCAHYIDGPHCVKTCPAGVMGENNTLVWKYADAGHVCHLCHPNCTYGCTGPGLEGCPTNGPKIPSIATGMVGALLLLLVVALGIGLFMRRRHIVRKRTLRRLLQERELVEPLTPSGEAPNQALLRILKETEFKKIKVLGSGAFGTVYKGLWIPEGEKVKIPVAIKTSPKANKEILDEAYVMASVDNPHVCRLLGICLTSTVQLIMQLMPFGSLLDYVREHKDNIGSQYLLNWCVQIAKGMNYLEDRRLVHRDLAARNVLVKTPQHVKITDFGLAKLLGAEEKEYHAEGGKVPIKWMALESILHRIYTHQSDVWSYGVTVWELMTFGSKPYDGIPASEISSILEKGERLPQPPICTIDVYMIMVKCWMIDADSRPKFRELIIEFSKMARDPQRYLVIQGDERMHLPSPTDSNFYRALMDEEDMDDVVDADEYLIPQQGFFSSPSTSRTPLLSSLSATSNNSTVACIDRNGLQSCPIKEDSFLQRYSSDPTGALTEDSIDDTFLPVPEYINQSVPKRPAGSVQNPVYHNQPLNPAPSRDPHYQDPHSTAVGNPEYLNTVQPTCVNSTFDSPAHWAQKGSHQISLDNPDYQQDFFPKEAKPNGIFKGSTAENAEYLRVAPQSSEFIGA

SMILES | IC50 [1, 11] | IC50 [2, 12] | IC50 [3, 13] | IC50 [4, 14] | IC50 ([5]; IC50 WT (nM), 100 μM ATP) | IC50 [1, 20] | IC50 [4, 22] | IC50 [5, 23] | other results
O=S(=O)(C1CC1)n1cc(-c2nccc(Nc3cc(N[C@H]4CC[C@@H](O)CC4)c(C#Cc4cccc(NCCN5CCOCC5)c4)cn3)n2)cn1 [Example 173, (1s,4s)-4-((2-((2-(1-(Cyclopropylsulfonyl)-1H-pyrazol-4-yl)pyrimidin-4-yl)amino)-5-((3-((2-morpholinoethyl)amino)phenyl)ethynyl)pyridin-4-yl)amino)cyclohexan-1-ol] | – | – | – | – | – | – | – | – | IC50 [1, 6]: 2.9 nM; IC50 ([1]; read-out: IC50 Del19/T790M/C797S (nM), 100 μM ATP): 9.9 nM; IC50 [2, 7]: 1.3 nM; IC50 ([2]; read-out: IC50 L858R/T790M/C797S (nM), 100 μM ATP): 10.5 nM; IC50 [3, 8]: 6.2 nM; IC50 ([3]; read-out: IC50 Del19/C797S (nM), 100 μM ATP): 8.5 nM; IC50 [4, 9]: 7.8 nM; IC50 ([4]; read-out: IC50 L858R/C797S (nM), 100 μM ATP): 100 nM; IC50 [5, 10]: 22.9 nM; IC50 ([5]; read-out: IC50 WT (nM), 100 μM ATP): > 10000 nM
O=S(=O)(C1CC1)n1cc(-c2nccc(Nc3cc(N[C@H]4CCC[C@H](O)C4)c(C#Cc4ccsc4)cn3)n2)cn1 [Example 225, (1 S,3S)-3-((2-((2-(1-(Cyclopropylsulfonyl)-1H-pyrazol-4-yl)pyrimidin-4-yl)amino)-5-(thiophen-3-ylethynyl)pyridin-4-yl)amino)cyclohexan-1-ol] | 6.4 nM | 12.3 nM | 87.8 nM | 310 nM | > 10000 nM | – | – | – | –
CC1(CO)CCN(c2cc(Nc3ccnc(-c4cnn(S(=O)(=O)C5CC5)c4)n3)ncc2C#CC2CCCO2)CC1 (centres unmarked) [Example 378, (1-(2-((2-(1-(Cyclopropylsulfonyl)-1H-pyrazol-4-yl)pyrimidin-4-yl)amino)-5-((tetrahydrofuran-2-yl)ethynyl)pyridin-4-yl)-4-methylpiperidin-4-yl)methanol] | 0.3 nM | 0.4 nM | 1 nM | 34 nM | 2900 nM | – | – | – | IC50 [1, 15]: 0.1 nM; IC50 [2, 16]: 0.1 nM; IC50 [3, 17]: 0.5 nM; IC50 [4, 18]: 1.3 nM; IC50 [5, 19]: 3.9 nM
CC1(CO)CCN(c2cc(Nc3ccnc(-c4cnn(S(=O)(=O)C5CC5)c4)n3)ncc2C#CC2(O)CCOC2)CC1 (centres unmarked) [Example 355, 3-((6-((2-(1-(Cyclopropylsulfonyl)-1H-pyrazol-4-yl)pyrimidin-4-yl)amino)-4-(4-(hydroxymethyl)-4-methylpiperidin-1-yl)pyridin-3-yl)ethynyl)tetrahydrofuran-3-ol] | 0.2 nM | 0.2 nM | 0.4 nM | 7.4 nM | 1740 nM | – | – | – | IC50 [1, 15]: 0.2 nM; IC50 [2, 16]: 0.1 nM; IC50 [3, 17]: 0.2 nM; IC50 [4, 18]: 0.5 nM; IC50 [5, 19]: 4.8 nM
CC1(C#Cc2cnc(Nc3ccnc(-c4cnn(S(=O)(=O)C5CC5)c4)n3)cc2NC[C@H]2CC[C@H](CO)CC2)CC1 [Example 405, ((1r,4r)-4-(((2-((2-(1-(Cyclopropylsulfonyl)-1H-pyrazol-4-yl)pyrimidin-4-yl)amino)-5-((1-methylcyclopropyl)ethynyl)pyridin-4-yl)amino)methyl)cyclohexyl)methanol] | 46.5 nM | 94.2 nM | 249 nM | 3900 nM | > 10000 nM | – | – | – | –
CN(C)C[C@H]1CC[C@H](COc2cc(Nc3ccnc(-c4cnn(S(=O)(=O)C5CC5)c4)n3)ncc2C#Cc2cccnc2)CC1 [Example 62, 2-(1-(Cyclopropylsulfonyl)-1H-pyrazol-4-yl)-N-(4-(((1r,4r)-4-((dimethylamino)methyl)cyclohexyl)methoxy)-5-(pyridin-3-ylethynyl)pyridin-2-yl)pyrimidin-4-amine] | – | – | – | – | – | 0.2 nM | 4.9 nM | 7.9 nM | IC50 [2, 24]: 0.1 nM; IC50 [3, 21]: 0.4 nM
CN(C)CCCn1cc(C#Cc2cnc(Nc3ccnc(-c4cnn(S(=O)(=O)C5CC5)c4)n3)cc2N[C@H]2CC[C@@H](O)CC2)cn1 [Example 123, (1s,4s)-4-((2-((2-(1-(Cyclopropylsulfonyl)-1H-pyrazol-4-yl)pyrimidin-4-yl)amino)-5-((1-(3-(dimethylamino)propyl)-1H-pyrazol-4-yl)ethynyl)pyridin-4-yl)amino)cyclohexan-1-ol] | 0.4 nM | 0.4 nM | 0.6 nM | 4.3 nM | 1080 nM | 0.4 nM | 0.3 nM | 3.6 nM | IC50 [2, 24]: 0.1 nM; IC50 [3, 21]: 0.3 nM
CN(C)CCCn1cc(C#Cc2cnc(Nc3ccnc(-c4cnn(S(=O)(=O)C5CC5)c4)n3)cc2N2CCC3(CC2)CC(C)(O)C3)cn1 [Example 152, 7-(2-((2-(1-(Cyclopropylsulfonyl)-1H-pyrazol-4-yl)pyrimidin-4-yl)amino)-5-((1-(3-(dimethylamino)propyl)-1H-pyrazol-4-yl)ethynyl)pyridin-4-yl)-2-methyl-7-azaspiro[3.5]nonan-2-ol] | 0.3 nM | 0.2 nM | 0.4 nM | 0.8 nM | 196 nM | – | – | – | IC50 [1, 6]: 0.2 nM; IC50 [2, 7]: 0.1 nM; IC50 [3, 8]: 0.1 nM; IC50 [4, 9]: 0.2 nM; IC50 [5, 10]: 0.6 nM

Second part, led by results:

IC50 [1, 11] | IC50 [2, 12] | IC50 [3, 13] | IC50 [4, 14] | IC50 ([5]; IC50 WT (nM), 100 μM ATP) | IC50 [1, 20] | IC50 [4, 22] | IC50 [5, 23] | SMILES | other results
2.8 nM | 1.8 nM | 6.9 nM | 45.7 nM | > 10000 nM | – | – | – | Cn1cc(C#Cc2cnc(Nc3ccnc(-c4cnn(S(=O)(=O)C5CC5)c4)n3)cc2N2CCC(NCCC(F)(F)F)CC2)cn1 [Example 127, 2-(1-(Cyclopropylsulfonyl)-1H-pyrazol-4-yl)-N-(5-((1-methyl-1H-pyrazol-4-yl)ethynyl)-4-(4-((3,3,3-trifluoropropyl)amino)piperidin-1-yl)pyridin-2-yl)pyrimidin-4-amine] | –
1.3 nM | 1.4 nM | 2.8 nM | 22.3 nM | > 10000 nM | 0.9 nM | 4.4 nM | 8.2 nM | O=S(=O)(C1CC1)n1cc(-c2nccc(Nc3cc(N4CCC(CO)CC4)c(C#Cc4cnn(CCF)c4)cn3)n2)cn1 [Example 30, (1-(2-((2-(1-(Cyclopropylsulfonyl)-1H-pyrazol-4-yl)pyrimidin-4-yl)amino)-5-((1-(2-fluoroethyl)-1H-pyrazol-4-yl)ethynyl)pyridin-4-yl)piperidin-4-yl)methanol] | IC50 [3, 21]: 3 nM
1.1 nM | 4.8 nM | 11.8 nM | 96.9 nM | > 10000 nM | 1.5 nM | 12 nM | 29.4 nM | O=S(=O)(C1CC1)n1cc(-c2nccc(Nc3cc(N4CC[C@@H](O)C4)c(C#Cc4cnn(CCF)c4)cn3)n2)cn1 [Example 32, (R)-1-(2-((2-(1-(Cyclopropylsulfonyl)-1H-pyrazol-4-yl)pyrimidin-4-yl)amino)-5-((1-(2-fluoroethyl)-1H-pyrazol-4-yl)ethynyl)pyridin-4-yl)pyrrolidin-3-ol] | –
1.2 nM | 1.2 nM | 8.2 nM | 86.8 nM | > 10000 nM | – | – | – | Cn1cc(C#Cc2cnc(Nc3ccnc(-c4cnn(S(=O)(=O)C5CC5)c4)n3)cc2N2CCC(F)(CNCCF)CC2)cn1 [Example 383, 2-(1-(Cyclopropylsulfonyl)-1H-pyrazol-4-yl)-N-(4-(4-fluoro-4-(((2-fluoroethyl)amino)methyl)piperidin-1-yl)-5-((1-methyl-1H-pyrazol-4-yl)ethynyl)pyridin-2-yl)pyrimidin-4-amine] | IC50 [1, 15]: 1 nM; IC50 [2, 16]: 0.6 nM; IC50 [3, 17]: 3.7 nM; IC50 [4, 18]: 14.5 nM; IC50 [5, 19]: 40.8 nM
0.1 nM | 0.1 nM | 0.2 nM | 1.6 nM | 351 nM | – | – | – | CN(C)CCC1CCN(c2cc(Nc3ccnc(-c4cnn(S(=O)(=O)C5CC5)c4)n3)ncc2C#Cc2cnn(C)c2)CC1 [Example 294, 2-(1-(Cyclopropylsulfonyl)-1H-pyrazol-4-yl)-N-(4-(4-(2-(dimethylamino)ethyl)piperidin-1-yl)-5-((1-methyl-1H-pyrazol-4-yl)ethynyl)pyridin-2-yl)pyrimidin-4-amine formate] | IC50 [1, 6]: 0.1 nM; IC50 [2, 7]: 0.1 nM; IC50 [3, 8]: 0.2 nM; IC50 [4, 9]: 0.3 nM; IC50 [5, 10]: 0.6 nM
